From patent US10588317B2, “Isoxazoline-substituted benzamides and analogues as insecticides” (priority 2015, dated 2020)
Read-outs that look alike come from different tables or passages of the source.

Key:
Assay type in all cases: in vivo
[1] = tested on: Myzus persicae; experiment: Myzus persicae (green peach aphid): feeding/contact activity; settings: 144 h
Experimental: (§1) Sunflower leaf discs were placed onto agar in a 24-well microtiter plate and sprayed with aqueous test solutions prepared from 10'000 ppm DMSO stock solutions. After drying, the leaf discs were infested with an aphid population of mixed ages. The samples were assessed for mortality 6 days after infestation.

[2] = tested on: Tetranychus urticae; experiment: Tetranychus urticae (two-spotted spider mite): feeding/contact activity; settings: 192 h
Experimental: Bean leaf discs on agar in 24-well microtiter plates were sprayed with aqueous test solutions prepared from 10'000 ppm DMSO stock solutions. After drying the leaf discs were infested with a mite population of mixed ages. The samples were assessed for mortality on mixed population (mobile stages) 8 days after infestation.

[3] = tested on: Euschistus heros; experiment: Euschistus heros (neotropical brown stink bug), sprayed soybean leaves; settings: 120 h, read-out: effect in at least one of the two categories (mortality or growth inhibition); for percent effect (mortality or growth inhibition) at 200 ppm: application rate 200 ppm, N2 nymphs, 5 days after infestation
Outline: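 Scored 5 days post-infestation versus untreated controls, for both mortality and growth inhibition: N2 nymphs placed on agar-mounted soybean leaves previously sprayed at 200 ppm with aqueous test solutions from DMSO stocks and left to dry.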

[4] = tested on: Diabrotica balteata; experiment: Diabrotica balteata (corn root worm), sprayed maize sprouts; settings: 96 h, read-out: effect in at least one of the two categories (mortality or growth inhibition); for percent effect (mortality or growth inhibition) at 200 ppm: application rate 200 ppm, L2 larvae, 4 days after infestation
Outline: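 Read-out at 4 days post-infestation: mortality and growth inhibition relative to untreated samples. Test solutions (200 ppm, from DMSO stocks) were sprayed onto agar-held maize sprouts, which after drying received 6–10 L2 larvae per well.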

[5] = tested on: Thrips tabaci; experiment: Thrips tabaci (onion thrips): feeding/contact activity; settings: 144 h
Experimental: as §1, with “on” for “onto”, “in” for “in a”, “plates” for “plate”, “drying” for “drying,”, “a Thrips” for “an aphid”

[6] = tested on: Plutella xylostella; experiment: Plutella xylostella (diamond back moth), artificial diet; settings: 120 h, read-out: effect in at least one of the two categories (mortality or growth inhibition); for percent effect (mortality or growth inhibition) at 200 ppm: application rate 200 ppm, L2 larvae, 5 days after infestation
Outline: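 L2 larvae (10-15 per well) fed on compound-treated, dried artificial diet; test solutions diluted in water from 10'000 ppm DMSO stocks. Readout 5 days post-infestation as mortality or growth inhibition versus untreated diet, with at least 80% effect at 200 ppm as threshold.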

[7] = tested on: Spodoptera littoralis; experiment: Spodoptera littoralis (Egyptian cotton leaf worm), sprayed cotton leaf discs; settings: foliar, 72 h, read-out: control (mortality, anti-feeding effect, growth inhibition)
Outline: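 Five first-instar larvae placed on dried cotton leaf discs (on agar) previously sprayed with aqueous dilutions of 10'000 ppm DMSO stocks. Scored at 3 days against untreated discs for mortality, feeding inhibition and growth inhibition; any category above untreated counts as control.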

[8] = application rate 200 ppm, aphid population of mixed ages, 6 days after infestation, read-out: mortality
[9] = application rate 200 ppm, mixed population (mobile stages), 8 days after infestation, read-out: mortality
[10] = application rate 200 ppm, Thrips population of mixed ages, 6 days after infestation, read-out: mortality
[11] = application rate 200 ppm, L1 larvae, 3 days after infestation

CNS(=O)(=O)N1C[C@@H](NC(=O)c2ccc(C3=NO[C@](c4cc(Cl)c(C(F)F)c(Cl)c4)(C(F)(F)F)C3)cc2C)CO1 [Compound A206, 4-[(5R)-5-[3,5-dichloro-4-(difluoromethyl)phenyl]-5-(trifluoromethyl)-4H-1,2-oxazol-3-yl]-2-methyl-N-[(4R)-2-(methylsulfamoyl)-1,2-oxazolidin-4-yl]benzamide]
≥ 80%: mortality at 200 ppm [1, 8] | mortality at 200 ppm [2, 9] | percent effect (mortality or growth inhibition) at 200 ppm [3] | percent effect (mortality or growth inhibition) at 200 ppm [4] | mortality at 200 ppm [5, 10] | percent effect (mortality or growth inhibition) at 200 ppm [6] | mortality at 200 ppm [7, 11]

CNS(=O)(=O)N1C[C@@H](NC(=O)c2ccc(C3=NO[C@](c4cc(Cl)c(OC(F)F)c(Cl)c4)(C(F)(F)F)C3)cc2C)CO1 [Compound A207, 4-[(5R)-5-[3,5-dichloro-4-(difluoromethoxy)phenyl]-5-(trifluoromethyl)-4H-1,2-oxazol-3-yl]-2-methyl-N-[(4R)-2-(methylsulfamoyl)-1,2-oxazolidin-4-yl]benzamide]
≥ 80%: mortality at 200 ppm [1, 8] | mortality at 200 ppm [2, 9] | percent effect (mortality or growth inhibition) at 200 ppm [3] | percent effect (mortality or growth inhibition) at 200 ppm [4] | mortality at 200 ppm [5, 10] | percent effect (mortality or growth inhibition) at 200 ppm [6] | mortality at 200 ppm [7, 11]

Cc1cc(C2=NO[C@](c3cc(Cl)c(F)c(Cl)c3)(C(F)(F)F)C2)ccc1C(=O)N[C@H]1CON(S(=O)(=O)NC(=O)OC(C)(C)C)C1 [Compound A209, tert-butyl N-[[(4R)-4-[[4-[(5R)-5-(3,5-dichloro-4-fluorophenyl)-5-(trifluoromethyl)-4H-1,2-oxazol-3-yl]-2-methylbenzoyl]amino]-1,2-oxazolidin-2-yl]sulfonyl]carbamate]
≥ 80%: mortality at 200 ppm [1, 8] | mortality at 200 ppm [2, 9] | percent effect (mortality or growth inhibition) at 200 ppm [3] | percent effect (mortality or growth inhibition) at 200 ppm [4] | mortality at 200 ppm [5, 10] | percent effect (mortality or growth inhibition) at 200 ppm [6] | mortality at 200 ppm [7, 11]

Cc1cc(C2=NO[C@@](c3cc(Cl)cc(Cl)c3)(C(F)(F)F)C2)ccc1C(=O)N[C@@H]1CON(S(=O)(=O)CF)C1 [Compound A210]
≥ 80%: mortality at 200 ppm [1, 8] | mortality at 200 ppm [2, 9] | percent effect (mortality or growth inhibition) at 200 ppm [3] | percent effect (mortality or growth inhibition) at 200 ppm [4] | mortality at 200 ppm [5, 10] | percent effect (mortality or growth inhibition) at 200 ppm [6] | mortality at 200 ppm [7, 11]

Cc1cc(C2=NO[C@](c3cc(Cl)c(F)c(Cl)c3)(C(F)(F)F)C2)ccc1C(=O)N[C@H]1CON(S(=O)(=O)CF)C1 [Compound A211]
≥ 80%: mortality at 200 ppm [1, 8] | mortality at 200 ppm [2, 9] | percent effect (mortality or growth inhibition) at 200 ppm [3] | percent effect (mortality or growth inhibition) at 200 ppm [4] | mortality at 200 ppm [5, 10] | percent effect (mortality or growth inhibition) at 200 ppm [6] | mortality at 200 ppm [7, 11]

Cc1cc(C(F)(F)F)cc([C@@]2(C(F)(F)F)CC(c3ccc(C(=O)N[C@@H]4CON(S(C)(=O)=O)C4)c(C)c3)=NO2)c1 [Compound A212]
≥ 80%: mortality at 200 ppm [1, 8] | mortality at 200 ppm [2, 9] | percent effect (mortality or growth inhibition) at 200 ppm [3] | percent effect (mortality or growth inhibition) at 200 ppm [4] | mortality at 200 ppm [5, 10] | percent effect (mortality or growth inhibition) at 200 ppm [6] | mortality at 200 ppm [7, 11]

Cc1cc(C2=NO[C@@](c3cc(Cl)c(F)c(Cl)c3)(C(F)(F)F)C2)ccc1C(=O)N[C@@H]1CON(S(=O)(=O)F)C1 [Compound A213, (4S)-4-[[4-[(5S)-5-(3,5-dichloro-4-fluorophenyl)-5-(trifluoromethyl)-4H-1,2-oxazol-3-yl]-2-methylbenzoyl]amino]-1,2-oxazolidine-2-sulfonyl fluoride]
≥ 80%: mortality at 200 ppm [1] | mortality at 200 ppm [2] | percent control (mortality or growth inhibition) at 200 ppm [3] | percent control (mortality or growth inhibition) at 200 ppm [4] | mortality at 200 ppm [5] | percent control (mortality or growth inhibition) at 200 ppm [6] | mortality at 200 ppm [7]

Cc1cc(C2=NO[C@@](c3cc(Cl)cc(C(F)(F)F)c3)(C(F)(F)F)C2)ccc1C(=O)N[C@@H]1CON(S(=O)(=O)CC(F)(F)F)C1 [Compound A214]
≥ 80%: mortality at 200 ppm [1, 8] | mortality at 200 ppm [2, 9] | percent effect (mortality or growth inhibition) at 200 ppm [3] | percent effect (mortality or growth inhibition) at 200 ppm [4] | mortality at 200 ppm [5, 10] | percent effect (mortality or growth inhibition) at 200 ppm [6] | mortality at 200 ppm [7, 11]

Cc1cc(C2=NO[C@@](c3cccc(C(F)(F)F)n3)(C(F)(F)F)C2)ccc1C(=O)N[C@H]1CON(S(C)(=O)=O)C1 [Compound A215]
≥ 80%: mortality at 200 ppm [1, 8] | mortality at 200 ppm [2, 9] | percent effect (mortality or growth inhibition) at 200 ppm [3] | percent effect (mortality or growth inhibition) at 200 ppm [4] | mortality at 200 ppm [5, 10] | percent effect (mortality or growth inhibition) at 200 ppm [6] | mortality at 200 ppm [7, 11]

Cc1cc(C2=NO[C@](c3cc(Cl)c(Cl)c(Cl)c3)(C(F)(F)F)C2)ccc1C(=O)N[C@H]1CON(S(=O)(=O)CF)C1 [Compound A216, N-[(4R)-2-(fluoromethylsulfonyl)-1,2-oxazolidin-4-yl]-2-methyl-4-[(5R)-5-(3,4,5-trichlorophenyl)-5-(trifluoromethyl)-4H-1,2-oxazol-3-yl]benzamide]
≥ 80%: mortality at 200 ppm [1, 8] | mortality at 200 ppm [2, 9] | percent effect (mortality or growth inhibition) at 200 ppm [3] | percent effect (mortality or growth inhibition) at 200 ppm [4] | mortality at 200 ppm [5, 10] | percent effect (mortality or growth inhibition) at 200 ppm [6] | mortality at 200 ppm [7, 11]

Cc1cc(C2=NO[C@](c3cc(Cl)cc(C(F)(F)F)c3)(C(F)(F)F)C2)ccc1C(=O)N[C@H]1CON(S(=O)(=O)CCl)C1 [Compound A217]
≥ 80%: mortality at 200 ppm [1, 8] | mortality at 200 ppm [2, 9] | percent effect (mortality or growth inhibition) at 200 ppm [3] | percent effect (mortality or growth inhibition) at 200 ppm [4] | mortality at 200 ppm [5, 10] | percent effect (mortality or growth inhibition) at 200 ppm [6] | mortality at 200 ppm [7, 11]

Cc1cc(C2=NO[C@](c3cc(Cl)cc(C(F)(F)F)c3)(C(F)(F)F)C2)ccc1C(=O)N[C@H]1CON(S(=O)(=O)CF)C1 [Compound A218]
≥ 80%: mortality at 200 ppm [1, 8] | mortality at 200 ppm [2, 9] | percent effect (mortality or growth inhibition) at 200 ppm [3] | percent effect (mortality or growth inhibition) at 200 ppm [4] | mortality at 200 ppm [5, 10] | percent effect (mortality or growth inhibition) at 200 ppm [6] | mortality at 200 ppm [7, 11]

Cc1cc(C2=NO[C@](c3cc(Cl)cc(C(F)(F)F)c3)(C(F)(F)F)C2)ccc1C(=O)N[C@H]1CON(S(=O)(=O)F)C1 [Compound A219]
≥ 80%: mortality at 200 ppm [1] | mortality at 200 ppm [2] | percent control (mortality or growth inhibition) at 200 ppm [3] | percent control (mortality or growth inhibition) at 200 ppm [4] | mortality at 200 ppm [5] | percent control (mortality or growth inhibition) at 200 ppm [6] | mortality at 200 ppm [7]

Cc1cc(C2=NO[C@](c3cc(Cl)c(Cl)c(Cl)c3)(C(F)(F)F)C2)ccc1C(=O)N[C@H]1CON(S(=O)(=O)CCl)C1 [Compound A220, N-[(4R)-2-(chloromethylsulfonyl)-1,2-oxazolidin-4-yl]-2-methyl-4-[(5R)-5-(3,4,5-trichlorophenyl)-5-(trifluoromethyl)-4H-1,2-oxazol-3-yl]benzamide]
≥ 80%: mortality at 200 ppm [1, 8] | mortality at 200 ppm [2, 9] | percent effect (mortality or growth inhibition) at 200 ppm [3] | percent effect (mortality or growth inhibition) at 200 ppm [4] | mortality at 200 ppm [5, 10] | percent effect (mortality or growth inhibition) at 200 ppm [6] | mortality at 200 ppm [7, 11]

Cc1cc(C2=NO[C@](c3cc(Cl)c(F)c(Cl)c3)(C(F)(F)F)C2)ccc1C(=O)N[C@@H]1CON(S(=O)(=O)C(F)(F)F)C1 [Compound A223, 4-[(5R)-5-(3,5-dichloro-4-fluorophenyl)-5-(trifluoromethyl)-4H-1,2-oxazol-3-yl]-2-methyl-N-[(4S)-2-(trifluoromethylsulfonyl)-1,2-oxazolidin-4-yl]benzamide]
≥ 80%: mortality at 200 ppm [1, 8] | mortality at 200 ppm [2, 9] | percent effect (mortality or growth inhibition) at 200 ppm [3] | percent effect (mortality or growth inhibition) at 200 ppm [4] | mortality at 200 ppm [5, 10] | percent effect (mortality or growth inhibition) at 200 ppm [6] | mortality at 200 ppm [7, 11]
